Molecules are shown by their SMILES.

The test system of assay [1] is Mouse-derived myoblast line C2C12 cell. Kind of assay: Cell differentiation promoting activity in myoblast (creatine kinase activity). In kind it is cell-based. Conditions: 48 h, 1 μM compound, 2 days in differentiation medium, CK activity without compound = 100%, read-out: creatinine kinase activating action (%). How it is done: • (1) Mouse-derived myoblast line C2C12 cell (Dainippon Pharmaceutical Co., Ltd.) was subcultured in a high glucose Eagle's modified Dulbecco's medium (GIBCO) containing 10% calf fetal bovine serum (GIBCO), 100 unit/mL penicillin and 100 μg/mL streptomycin (hereinafter to be referred to as a growth medium), plated at 5000 cells/cm^2 and cultured at 37° C., under 5% CO2. • (2) When the cells reached subconfluence, the medium was exchanged with a high glucose Eagle's modified Dulbecco's medium (GIBCO) containing 2% horse serum (GIBCO) and penicillin, streptomycin and a test compound (hereinafter to be referred to as a differentiation medium), and the cells were cultured for 2 days. To the control group was added DMSO solution instead of the test compound. • (3) The cells were washed with PBS, 0.5% NP-40 solution was added thereto, and the cells were lysed by freeze-thawing. The cell extract was centrifuged, and the creatine kinase activity in the supernatant was measured as an index of muscle differentiation. The creatine kinase activity was measured using CPKII Test Wako (Wako Pure Chemical Industries, Ltd.) according to the manual of the kit. The tests using the compounds of Example 7 to Example 14 were corrected based on the total protein amount measured using CA Protein Assay Kit (Thermo Scientific).
The numerical values in Table 3 show CK activity of the compound addition group with the CK activity without addition of the compound as 100%, and 1 μM of the compound was added for the measurement.

Assay [2] has as its system differentiated C2C12 muscle cell. As to the kind of experiment: Sugar metabolism promoting activity in muscle cell (lactic acid production). Type of assay: cell-based, mouse. Conditions: C2C12 myotube, 1 μM compound, 2 days; lactic acid concentration without compound = 100%. How it is done:
• (1) In the same manner as in Experimental Example 1, C2C12 cell was cultured in a growth medium. When the cells reached subconfluence, the medium was exchanged with a differentiation medium, and the cells were cultured for 3 to 4 days while exchanging the medium every 2 or 3 days until the cells differentiated to form a myotube. • (2) After confirmation of myotube formation under a microscope, the compound (1 μM) was added to a differentiation medium and cultured for 2 days. The cells were washed with Krebs-Ringer HEPES phosphate buffer (10 mM HEPES, pH 7.4, 131 mM NaCl, 4.7 mM KCl, 2.5 mM CaCl2-2H2O, 1.2 mM MgSO4-7H2O, 1.2 mM KH2PO4), the medium was exchanged with Krebs-Ringer HEPES phosphate buffer containing 5 mM glucose, 0.2% fatty acid-free bovine serum albumin, and the cells were cultured at 37° C. for 4 hr. • (3) The lactic acid concentration of the culture supernatant was measured using Detarminer LA kit (Kyowa Medex Co., Ltd.).
The numerical values in Table 4 show the lactic acid concentration of the compound addition group with the lactic acid concentration without addition of the compound as 100%.

The nature of assay [3]: Anti-obesity action in high-fat diet-loaded mouse. Type of assay: in vivo, male C57BL/6J mouse. Conditions: for plasma total cholesterol concentration (mg/dL) before administration: before administration (baseline); for plasma total cholesterol concentration (mg/dL) before administration / plasma total cholesterol concentration (mg/dL) after administration for 4 weeks / body weight: mean ± SD, n=6; for body weight: once a day for 4 weeks, administration completion day. How it is done:
As male C57BL/6J mouse (CLEA Japan, Inc.), mice fed with a high-fat diet (45 kcal % fat, D12451, research diet) for 40 weeks from 5 weeks old were used. After acclimation bred for 3 weeks, the body weight, ingestion amount, body fat percentage, plasma triglyceride, insulin and leptin concentration were measured, and the mice were divided into 4 groups at 6 per group without difference between them. Plasma total cholesterol concentration was measured using Hitachi automatic analyzer 7180. The compound of Example 1 was suspended in aqueous methylcellulose solution, and the suspension was orally administered repeatedly to 3 groups of the […] divided into 4 groups at 3 mg/kg, 10 mg/kg or 30 mg/kg once a day for 4 weeks. A 0.5% aqueous methylcellulose solution was orally administered similarly to the remaining one group, and the group was used as a control group. On the administration completion day, the body weight and plasma total cholesterol concentration were measured. The numerical values in Table 5 show mean±standard deviation at n=6 (n is the number of mice).

The test system of the next assay is NF-kB. As to the kind of experiment: NF-kB activation suppressive action in muscle cell (luciferase reporter, TNF-α induced). In kind it is cell-based, mouse. Conditions: TNF-α 10 ng/mL, activity without TNF-α = 1, n=8. How it is done:
• (1) C2C12 cells introduced with NF-kB reporter plasmid (C2C12/NF-kB-luc, Panomics) was plated at 20000 cells/cm^2, 100 μg/ml hygromycin was added thereto, and the cells were cultured in a growth medium in the same manner as in Example 1. • (2) The cells were cultured in a differentiation medium containing the compound of Example 1, Example 8, Example 9, Example 10 or Example 11 for 1 hr, TNF-α was added thereto such that the concentration is 10 ng/mL, and the cells were cultured for 4 hr. • (3) The luciferase activity in the medium was measured using a Stedy-Glo luciferase assay system (Promega). The NF-kB activity was evaluated by measuring the luciferase activity.
The data in Table 6 to Table 10 show mean±standard deviation at n=8 (n is the number of samples).

Assay [4] in a line: Anti-diabetes action in KKA^y mouse (glycohemoglobin). Type of assay: in vivo, female KKA^y mouse. Conditions: 2 weeks, variation from value before administration, n=6. How it is done:
Female KKA^y mice (12-13 week-old, CLEA Japan, Inc.) were bred allowing free ingestion of both feed and water. The mice were acclimation bred with powder CE-2 (CLEA Japan, Inc.) from 2 weeks before administration of the test compound. The body weight, blood glycohemoglobin % (GHb %) value, plasma glucose, triglyceride and total cholesterol concentration were measured, and the mice were divided into 3 groups or 5 groups (6 mice/group) such that those measurement values are uniform at the start of the administration. The compound was administered by mixing (0.01-0.03%) in the feed for 2 weeks. GHb % was measured on the last day. GHb % was measured using Tosoh Corporation automatic glycohemoglobin analyzer (HLC-723GHbV Alc2.2). The numerical values in Table 11 show the variation from the value before administration to the measured value after administration in mean±standard deviation at n=6 (n is the number of mice).

A further assay relates to 3T3-L1 cells. As to the kind of experiment: Adipocyte differentiation suppressive action (fat droplet quantification). Type of assay: cell-based. Conditions: for lipid accumulation amount in the cell in fat differentiation, result in words: 1 μM; for lipid accumulation (%): 1 μM compound, 6 days, without compound = 100%, n=2. The method, then:
3T3-L1 cells (ATCC) were cultured in a growth medium until confluence. 1 μM dexamethasone, 0.5 mM 3-isobutyl-1-methylxanthine and 5 μg/mL insulin were added to the medium, and the cells were cultured for 3 days. The medium was exchanged with a growth medium containing 4 μg/mL insulin and the cells were cultured for 3 more days. When the compound (1 μM) was to be added, it was added after the cells reached confluence, and the cells were cultured for 6 days. After completion of the culture period, the fat droplet formed was quantified using Adipogenesis Assay Kit (CHEMICON). The numerical values in Table 12 show the relative value when without addition of the compound as 100% (n is the number of samples).

Regarding `O=C(/C=C/c1cnccc1-c1ccc(F)cc1)Nc1ccc(CCc2nnco2)cc1` [Example 1, (2E)-3-[4-(4-fluorophenyl)pyridin-3-yl]-N-{4-[2-(1,3,4-oxadiazol-2-yl)ethyl]phenyl}prop-2-enamide], the activity at 1 µM in assay [1] is 196%. The “lactic acid production promoting action (%)” value in assay [2] worked out at 226.1%. Further, the “plasma total cholesterol concentration (mg/dL) before administration” value in assay [3] (3 mg/kg/day group) is reported as 265.5 ± 29.7 mg/dL; in assay [3] (10 mg/kg/day group), 270.9 ± 24.5 mg/dL; in assay [3] (30 mg/kg/day group), 275.9 ± 18.2 mg/dL. For the same compound, the “plasma total cholesterol concentration (mg/dL) after administration for 4 weeks” value in assay [3] (3 mg/kg/day oral) is listed as 225.9 ± 27.7 mg/dL; in assay [3] (10 mg/kg/day oral), 192.8 ± 27.6 mg/dL; in assay [3] (30 mg/kg/day oral), 161.7 ± 16.9 mg/dL. Also, the “body weight” value in assay [3] (3 mg/kg/day oral) turned out to be 52.5 ± 2.5 g; in assay [3] (10 mg/kg/day oral), 49.0 ± 3.2 g; in assay [3] (30 mg/kg/day oral) it was 44.9 ± 3.1 g. Besides, in assay [3] (administration at 10 mg/kg or above, result in words), the “body weight decreasing action” value is listed as “showed a body weight decreasing action”. For the same compound, the “plasma total cholesterol concentration, result in words” value in assay [3] (high-fat diet-loaded mouse, 4 weeks oral) is given as “decreased total cholesterol concentration”. Also, the “NF-κB activity (multiple)” value was found to be 13.2 multiple with NF-kB (0.001 μM compound); 13.4 multiple with NF-kB (0.003 μM compound); 13.7 multiple with NF-kB (0.01 μM compound); 12.5 multiple in the assay on NF-kB (0.03 μM compound); 10.7 multiple in the assay on NF-kB (0.1 μM compound); 9.4 multiple with NF-kB (0.3 μM compound). In addition, the “NF-κB activity (multiple)” value in the assay with NF-kB (1 μM compound) was determined as 9.3 multiple; in the assay on NF-kB (3 μM compound), 8.3 multiple; in the assay with NF-kB (10 μM compound), 9.0 multiple. Besides, in assay [4] (0.01% mixed with feed), the “GHb change (%)” value is −0.4%. Moreover, in the assay on 3T3-L1 cells, the “lipid accumulation amount in the cell in fat differentiation, result in words” value is on record as “decrease the lipid accumulation amount in the cell”. For the same compound, the “lipid accumulation (%)” value with 3T3-L1 cells is 53%.
Regarding `COc1ccc(-c2ccncc2/C=C/C(=O)Nc2ccc(CCc3nnco3)cc2)cc1` [Example 2, (2E)-3-[4-(4-methoxyphenyl)pyridin-3-yl]-N-{4-[2-(1,3,4-oxadiazol-2-yl)ethyl]phenyl}prop-2-enamide], the activity at 1 µM in assay [1] amounted to 211%. The “lactic acid production promoting action (%)” value in assay [2] was found to be 168.3%. Besides, in assay [4] (0.02% mixed with feed), the “GHb change (%)” value is recorded as −1%. For the same compound, in the assay on 3T3-L1 cells, the “lipid accumulation amount in the cell in fat differentiation, result in words” value is on record as “decrease the lipid accumulation amount in the cell” and the “lipid accumulation (%)” value came to 45%.

Source of the values: US8937055B2, “Heterocyclic ring compound having muscle cell or adipocyte differentiation regulating action” (Takeda Pharmaceutical Company Limited, priority 2010, dated 2015).
